Measured values published in the supplement of paper PMC10307832.

Legend:
Experiment in all cases: relative viability (nuclei count vs DMSO), 5 days (fraction); higher = more cells survive
Palbociclib + Crizotinib = compound: CC(=O)c1c(C)c2cnc(Nc3ccc(N4CCNCC4)cn3)nc2n(C2CCCC2)c1=O [Palbociclib] + C[C@@H](Oc1cc(-c2cnn(C3CCNCC3)c2)cnc1N)c1c(Cl)ccc(F)c1Cl [Crizotinib] (partner 1 µM)
How it was run: (§1)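 Each reported value is a median over duplicate plates. It expresses relative viability: treated-well nuclei count divided by vehicle-well nuclei count. Lung cancer cell lines in 1536-well plates were dosed by pin tool a day after seeding, alone with one drug or with a fixed anchor-drug dose plus five library-drug doses (not always all listed) in √10 steps, and nuclei were counted after 5 days.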

Palbociclib + Vorinostat = compound: CC(=O)c1c(C)c2cnc(Nc3ccc(N4CCNCC4)cn3)nc2n(C2CCCC2)c1=O [Palbociclib] + O=C(CCCCCCC(=O)Nc1ccccc1)NO [Vorinostat] (partner 1 µM)
How it was run: as §1

Palbociclib + Decitabine = compound: CC(=O)c1c(C)c2cnc(Nc3ccc(N4CCNCC4)cn3)nc2n(C2CCCC2)c1=O [Palbociclib] + Nc1ncn([C@H]2C[C@H](O)[C@@H](CO)O2)c(=O)n1 [Decitabine] (partner 2 µM)
How it was run: as §1

Palbociclib + Trametinib = compound: CC(=O)c1c(C)c2cnc(Nc3ccc(N4CCNCC4)cn3)nc2n(C2CCCC2)c1=O [Palbociclib] + CC(=O)Nc1cccc(-n2c(=O)n(C3CC3)c(=O)c3c(Nc4ccc(I)cc4F)n(C)c(=O)c(C)c32)c1 [Trametinib] (partner 0.02 µM)
How it was run: as §1

Cell Line	relative viability (Palbociclib + Crizotinib; first compound 0.01 µM)	relative viability (Palbociclib + Crizotinib; first compound 0.03162 µM)	relative viability (Palbociclib + Crizotinib; first compound 0.1 µM)	relative viability (Palbociclib + Crizotinib; first compound 0.3162 µM)	relative viability (Palbociclib + Crizotinib; first compound 1 µM)	relative viability (Palbociclib + Vorinostat; first compound 0.01 µM)	relative viability (Palbociclib + Vorinostat; first compound 0.03162 µM)	relative viability (Palbociclib + Vorinostat; first compound 0.1 µM)	relative viability (Palbociclib + Vorinostat; first compound 0.3162 µM)	relative viability (Palbociclib + Vorinostat; first compound 1 µM)	relative viability (Palbociclib + Decitabine; first compound 0.01 µM)	relative viability (Palbociclib + Decitabine; first compound 0.03162 µM)	relative viability (Palbociclib + Decitabine; first compound 0.1 µM)	relative viability (Palbociclib + Decitabine; first compound 0.3162 µM)	relative viability (Palbociclib + Decitabine; first compound 1 µM)	relative viability (Palbociclib + Trametinib; first compound 0.01 µM)	relative viability (Palbociclib + Trametinib; first compound 0.03162 µM)	relative viability (Palbociclib + Trametinib; first compound 0.1 µM)	relative viability (Palbociclib + Trametinib; first compound 0.3162 µM)	relative viability (Palbociclib + Trametinib; first compound 1 µM)
NCI-H1563	0.852	0.832	0.813	0.759	0.67															
SK-LU-1	0.908	0.738	0.624	0.67	0.471	0.805	0.748	0.617	0.529	0.436	0.644	0.659	0.6	0.639	0.505	0.516	0.439	0.39	0.411	0.317
EPLC-272H	0.967		0.779	0.893	0.799	0.535	0.647	0.46	0.401	0.245	0.4		0.322	0.309	0.324	0.286		0.268	0.244	0.25
NCI-H2342						0.713	0.63	0.895	0.638	0.585	0.744	0.712	0.602	0.713	0.582	1.09	0.825	0.695	0.758	0.669
ABC-1	0.935	1.16	0.93	0.832	0.591	1.18	1.03	0.552	1.03	0.453	0.948	1.03	1.23	0.978	0.873					
LCLC-97TM1	0.345		0.257	0.313	0.259	0.698		0.423	0.363	0.249	0.23		0.231	0.239	0.198	0.209		0.208	0.182	0.184
SW 900						0.524		0.385	0.415	0.389	0.393		0.475	0.478	0.484	0.828		1.12	0.616	0.509
NCI-H661	0.957	0.779	0.674	0.694	0.556	0.748	0.598	0.561	0.433	0.425	0.547	0.484	0.476	0.461	0.39	0.536	0.5	0.423	0.477	0.336
PC-3 [JPC-3]	0.988	1.04	0.86	0.797	0.653	0.817	0.673	0.699	0.507	0.381	0.804	0.713	0.76	0.782	0.607	0.657	0.634	0.534	0.703	0.597
SW 1573	0.776	0.672	0.685	0.758	0.615	0.752	0.251	0.51	0.673	0.546	0.573	0.455	0.598	0.479	0.326	0.6	0.432	0.515	0.42	0.366
NCI-H838	0.795	0.808	0.645	0.551	0.413	0.71	0.623	0.543	0.478	0.314	0.455	0.461	0.48	0.434	0.353	0.643	0.477	0.396	0.376	0.175
NCI-H2087	0.802	0.901	0.618	0.643	0.375	0.365	0.53	0.602	0.379	0.188	0.234	0.272	0.2	0.228	0.171	0.236	0.191	0.161	0.15	0.187
NCI-H1666	1.09	0.895	0.632	0.552	0.621	1.05	0.947	0.836	0.835	0.788	0.725	0.67	0.721	0.682	0.565	0.862	0.704	0.784	0.727	0.728
HCC-366	0.539		0.501	0.526	0.413	0.388		0.289	0.213	0.135	0.338		0.33	0.334	0.342	0.466		0.41	0.298	0.24
NCI-H1299	0.938	0.895	0.86	0.7	0.631															
NCI-H1437	1.05	0.855	0.807	0.782	0.506	0.873	0.74	0.651	0.493	0.35	0.582	0.551	0.569	0.494	0.408	0.553	0.522	0.456	0.332	0.293
HARA	1.04	0.945	0.836	0.766	0.499	0.446		0.384	0.608	0.511	0.699	0.474	0.418	0.319	0.449	0.654	0.545	0.763	0.627	0.338
H3255	1.03	0.688	0.672	0.689	0.451	0.907	0.688	0.687	0.68	0.549	0.733	0.514	0.522	0.525	0.384	0.606	0.588	0.539	0.48	0.412
EMC-BAC-2	0.738	0.716	0.699	0.646	0.496	0.461	0.39	0.379	0.376	0.308	1.02	0.818	0.869	0.783	0.604	0.815	0.797	0.718	0.694	0.512
COR-L 105	0.726	0.555	0.451	0.447	0.276	0.9	0.887	0.612	0.611	0.482	0.777	0.629	0.554	0.604	0.452	0.477	0.435	0.36	0.407	0.389

Cell Line	relative viability (Palbociclib + Crizotinib; first compound 0.01 µM)	relative viability (Palbociclib + Crizotinib; first compound 0.03162 µM)	relative viability (Palbociclib + Crizotinib; first compound 0.1 µM)	relative viability (Palbociclib + Crizotinib; first compound 0.3162 µM)	relative viability (Palbociclib + Crizotinib; first compound 1 µM)	relative viability (Palbociclib + Vorinostat; first compound 0.01 µM)	relative viability (Palbociclib + Vorinostat; first compound 0.03162 µM)	relative viability (Palbociclib + Vorinostat; first compound 0.1 µM)	relative viability (Palbociclib + Vorinostat; first compound 0.3162 µM)	relative viability (Palbociclib + Vorinostat; first compound 1 µM)	relative viability (Palbociclib + Decitabine; first compound 0.01 µM)	relative viability (Palbociclib + Decitabine; first compound 0.03162 µM)	relative viability (Palbociclib + Decitabine; first compound 0.1 µM)	relative viability (Palbociclib + Decitabine; first compound 0.3162 µM)	relative viability (Palbociclib + Decitabine; first compound 1 µM)	relative viability (Palbociclib + Trametinib; first compound 0.01 µM)	relative viability (Palbociclib + Trametinib; first compound 0.03162 µM)	relative viability (Palbociclib + Trametinib; first compound 0.1 µM)	relative viability (Palbociclib + Trametinib; first compound 0.3162 µM)	relative viability (Palbociclib + Trametinib; first compound 1 µM)
UMC-11	0.603	0.519	0.428	0.346	0.177	0.308	0.42	0.369	0.312	0.242	0.696	0.624	0.363	0.48	0.336	0.762	0.602	0.421	0.406	0.258
NCI-H1792	0.972	0.897	0.906	0.868	0.634						0.567	0.432	0.597	0.469	0.389	0.501	0.376	0.323	0.338	0.213
RERF-LC-KJ	0.909	0.82	0.82	0.88	0.87	0.724	0.613	0.66	0.747	0.682	0.879	0.732	0.733	0.748	0.767	0.793	0.771	0.846	0.813	0.91
EKVX	1.13	0.898	0.818	0.781	0.499	0.702	0.509	0.625	0.549	0.483	0.383		0.281	0.307	0.293	0.3		0.247	0.251	0.244
NCI-H358	0.453	0.479	0.335	0.332	0.187	0.73	0.475	0.413	0.449	0.199	0.209	0.203	0.206	0.186	0.143	0.124	0.133	0.106	0.12	0.106
HCC-78	0.375	0.328	0.266	0.27	0.269	0.502	0.38	0.415	0.418	0.299	0.651	0.629	0.773	0.694	0.429	0.869	0.62	0.524	0.531	0.374
LU99A	0.636	0.559	0.496	0.428	0.389	0.517		0.435	0.587	0.399	0.926		0.863	0.813	0.684	0.557		0.523	0.573	0.478
NCI-H2009	1.02	0.913	0.838	0.695	0.331	0.716	0.677	0.69	0.53	0.295	0.375	0.347	0.358	0.365	0.274	0.307	0.296	0.194	0.223	0.141
NCI-H2405	0.829	0.649	0.698	0.703	0.586	1.01	1	0.82	0.837	0.631	0.781	0.808	0.691	0.64	0.605	0.614	0.509	0.531	0.555	0.447
201T	1.01	0.992	0.922	0.93	0.806	1.02	0.567	0.837	0.752	0.532	0.827	0.836	0.836	0.834	0.665	0.733	0.684	0.71	0.692	0.609
PC-14	1.01	0.84	0.799	0.739	0.594	0.804	0.629	0.576	0.673	0.416	0.329	0.217	0.224	0.27	0.205	0.742	0.528	0.512	0.466	0.273
NCI-H1703	0.845		0.513	0.505	0.227															
NCI-H522						0.912	0.536	0.906	1.03	0.802	0.749	0.646	0.635	0.736	0.709	0.818	0.576	0.776	0.797	0.853
NCI-H1793						0.824	0.564	0.531	0.664	0.287	0.559	0.613	0.611	0.46	0.342	0.438	0.431	0.44	0.322	0.281
A549	0.776	0.65	0.472	0.362	0.29						0.269		0.245	0.274	0.302					
NCI-H2228	0.447	0.45	0.406	0.31	0.369	0.566	0.673	0.649	0.717	0.398						0.606	0.373	0.494	0.522	0.483
NCI-H1395						0.844	0.705	0.602	0.724	0.496	0.741	0.704	0.656	0.702	0.641	1.08	0.884	0.816	0.854	0.731
IA-LM	0.748	0.505	0.373	0.138	0.0793	0.955		0.661	0.724	0.312										
CAL-12T	0.598	0.464	0.466	0.511	0.374	0.781	0.747	0.595	0.581	0.505						0.437	0.316	0.207	0.204	0.166
